{"source": "ChEMBL document CHEMBL2440076", "about": "“New triarylpyrazoles as broad-spectrum anticancer agents: design, synthesis, and biological evaluation” (Eur J Med Chem, 2013)", "type_in_all_cases": "functional", "key": {"[1]": {"experiment": "Growth inhibition of human NCI-ADR-RES cells assessed as cell growth at 5X10'-6 M after 48 hrs by sulforhodamine B assay", "conditions": "read-out: Activity"}, "RXF 393": {"test_system": "RXF 393", "experiment": "Growth inhibition of human RXF393 cells assessed as cell growth at 3X10'-6 M after 48 hrs by sulforhodamine B assay", "conditions": "RXF 393, 48 h, read-out: Activity"}, "CCRF-CEM": {"test_system": "CCRF-CEM", "experiment": "Growth inhibition of human CCRF-CEM cells assessed as cell growth at 3X10'-7 M after 48 hrs by sulforhodamine B assay", "conditions": "read-out: Activity"}, "NCI-H522 [2]": {"test_system": "NCI-H522", "experiment": "Growth inhibition of human NCI-H522 cells assessed as cell growth at 3X10'-7 M after 48 hrs by sulforhodamine B assay", "conditions": "NCI-H522, 48 h, read-out: Activity"}, "SK-MEL-28": {"test_system": "SK-MEL-28", "experiment": "Growth inhibition of human SK-MEL-28 cells assessed as cell growth at 3X10'-6 M after 48 hrs by sulforhodamine B assay", "conditions": "SK-MEL-28, 48 h, read-out: Activity"}, "ACHN": {"test_system": "ACHN", "experiment": "Growth inhibition of human ACHN cells assessed as cell growth at 3X10'-9 M after 48 hrs by sulforhodamine B assay", "conditions": "read-out: Activity"}, "HCT-116": {"test_system": "HCT-116", "experiment": "Growth inhibition of human HCT116 cells assessed as cell growth at 3X10'-5 M after 48 hrs by sulforhodamine B assay", "conditions": "HCT-116, 48 h, read-out: Activity"}, "SF-539 [3]": {"test_system": "SF-539", "experiment": "Growth inhibition of human SF539 cells assessed as cell growth at 3X10'-5 M after 48 hrs by sulforhodamine B assay", "conditions": "SF-539, 48 h, read-out: Activity"}, "HOP-62": {"test_system": "HOP-62", "experiment": "Growth inhibition of human HOP62 cells assessed as cell growth at 3X10'-9 M after 48 hrs by sulforhodamine B assay", "conditions": "HOP-62, 48 h, read-out: Activity"}, "RPMI-8226": {"test_system": "RPMI-8226", "experiment": "Growth inhibition of human RPMI8226 cells assessed as cell growth at 3X10'-8 M after 48 hrs by sulforhodamine B assay", "conditions": "RPMI-8226, 48 h, read-out: Activity"}, "SK-MEL-2 [4]": {"test_system": "SK-MEL-2", "experiment": "Growth inhibition of human SK-MEL-2 cells assessed as cell growth at 3X10'-6 M after 48 hrs by sulforhodamine B assay", "conditions": "SK-MEL-2, 48 h, read-out: Activity"}, "MDA-MB-468": {"test_system": "MDA-MB-468", "experiment": "Growth inhibition of human MDA-MB-468 cells assessed as cell growth at 3X10'-9 M after 48 hrs by sulforhodamine B assay", "conditions": "MDA-MB-468, 48 h, read-out: Activity"}, "SF-539 [5]": {"test_system": "SF-539", "experiment": "Growth inhibition of human SF539 cells assessed as cell growth at 3X10'-9 M after 48 hrs by sulforhodamine B assay", "conditions": "SF-539, 48 h, read-out: Activity"}, "UACC-62 [6]": {"test_system": "UACC-62", "experiment": "Growth inhibition of human UACC62 cells assessed as cell growth at 3X10'-6 M after 48 hrs by sulforhodamine B assay", "conditions": "UACC-62, 48 h, read-out: Activity"}, "UACC-62 [7]": {"test_system": "UACC-62", "experiment": "Growth inhibition of human UACC62 cells assessed as cell growth at 3X10'-5 M after 48 hrs by sulforhodamine B assay", "conditions": "UACC-62, 48 h, read-out: Activity"}, "UO-31": {"test_system": "UO-31", "experiment": "Growth inhibition of human UO31 cells assessed as cell growth at 3X10'-9 M after 48 hrs by sulforhodamine B assay", "conditions": "UO-31, 48 h, read-out: Activity"}, "NCI-H522 [8]": {"test_system": "NCI-H522", "experiment": "Growth inhibition of human NCI-H522 cells assessed as cell growth at 3X10'-6 M after 48 hrs by sulforhodamine B assay", "conditions": "NCI-H522, 48 h, read-out: Activity"}, "MDA-MB-435": {"test_system": "MDA-MB-435", "experiment": "Growth inhibition of human MDA-MB-435 cells assessed as cell growth at 3X10'-5 M after 48 hrs by sulforhodamine B assay", "conditions": "MDA-MB-435, 48 h, read-out: Activity"}, "HL-60(TB)": {"test_system": "HL-60(TB)", "experiment": "Growth inhibition of human HL-60(TB) cells assessed as cell growth at 3X10'-5 M after 48 hrs by sulforhodamine B assay", "conditions": "HL-60, 48 h, read-out: Activity"}, "NCI-H460 [9]": {"test_system": "NCI-H460", "experiment": "Growth inhibition of human NCI-H460 cells assessed as cell growth at 3X10'-6 M after 48 hrs by sulforhodamine B assay", "conditions": "NCI-H460, 48 h, read-out: Activity"}, "NCI-H226": {"test_system": "NCI-H226", "experiment": "Growth inhibition of human NCI-H226 cells assessed as cell growth at 3X10'-9 M after 48 hrs by sulforhodamine B assay", "conditions": "NCI-H226, 48 h, read-out: Activity"}, "TK-10": {"test_system": "TK-10", "experiment": "Growth inhibition of human TK10 cells assessed as cell growth at 3X10'-8 M after 48 hrs by sulforhodamine B assay", "conditions": "TK-10, 48 h, read-out: Activity"}, "SR": {"test_system": "SR", "experiment": "Growth inhibition of human SR cells assessed as cell growth at 3X10'-5 M after 48 hrs by sulforhodamine B assay", "conditions": "read-out: Activity"}, "OVCAR-4": {"test_system": "OVCAR-4", "experiment": "Growth inhibition of human OVCAR4 cells assessed as cell growth at 3X10'-5 M after 48 hrs by sulforhodamine B assay", "conditions": "OVCAR-4, 48 h, read-out: Activity"}, "NCI-H522 [10]": {"test_system": "NCI-H522", "experiment": "Growth inhibition of human NCI-H522 cells assessed as cell growth at 3X10'-9 M after 48 hrs by sulforhodamine B assay", "conditions": "NCI-H522, 48 h, read-out: Activity"}, "SK-MEL-2 [11]": {"test_system": "SK-MEL-2", "experiment": "Growth inhibition of human SK-MEL-2 cells assessed as cell growth at 3X10'-8 M after 48 hrs by sulforhodamine B assay", "conditions": "SK-MEL-2, 48 h, read-out: Activity"}, "NCI-H460 [12]": {"test_system": "NCI-H460", "experiment": "Growth inhibition of human NCI-H460 cells assessed as cell growth at 3X10'-7 M after 48 hrs by sulforhodamine B assay", "conditions": "NCI-H460, 48 h, read-out: Activity"}, "HCT-15": {"test_system": "HCT-15", "experiment": "Growth inhibition of human HCT15 cells assessed as cell growth at 3X10'-8 M after 48 hrs by sulforhodamine B assay", "conditions": "HCT-15, 48 h, read-out: Activity"}, "NCI-H322M": {"test_system": "NCI-H322M", "experiment": "Growth inhibition of human NCI-H322M cells assessed as cell growth at 3X10'-5 M after 48 hrs by sulforhodamine B assay", "conditions": "read-out: Activity"}, "NCI-H522 [13]": {"test_system": "NCI-H522", "experiment": "Growth inhibition of human NCI-H522 cells assessed as cell growth at 3X10'-5 M after 48 hrs by sulforhodamine B assay", "conditions": "NCI-H522, 48 h, read-out: Activity"}, "SNB-75": {"test_system": "SNB-75", "experiment": "Growth inhibition of human SNB75 cells assessed as cell growth at 3X10'-6 M after 48 hrs by sulforhodamine B assay", "conditions": "SNB-75, 48 h, read-out: Activity"}, "COLO 205": {"test_system": "COLO 205", "experiment": "Growth inhibition of human COLO205 cells assessed as cell growth at 3X10'-6 M after 48 hrs by sulforhodamine B assay", "conditions": "COLO 205, 48 h, read-out: Activity"}, "MCF7": {"test_system": "MCF7", "experiment": "Growth inhibition of human MCF7 cells assessed as cell growth at 3X10'-6 M after 48 hrs by sulforhodamine B assay", "conditions": "MCF7, 48 h, read-out: Activity"}, "NCI-H460 [14]": {"test_system": "NCI-H460", "experiment": "Growth inhibition of human NCI-H460 cells assessed as cell growth at 3X10'-9 M after 48 hrs by sulforhodamine B assay", "conditions": "NCI-H460, 48 h, read-out: Activity"}, "IGROV-1": {"test_system": "IGROV-1", "experiment": "Growth inhibition of human IGROV1 cells assessed as cell growth at 3X10'-9 M after 48 hrs by sulforhodamine B assay", "conditions": "IGROV-1, 48 h, read-out: Activity"}}}
{"smiles": "COc1cc(-c2nn(-c3cccc(NC(=O)Nc4ccc(Cl)c(Cl)c4)c3)cc2-c2ccncc2)ccc1Cl", "values": [{"measurement": "growth at 5 µM", "setting": "[1]", "result": -2, "unit": "%"}]}
{"smiles": "COc1cc(-c2nn(-c3cccc(NC(=O)Nc4cccc(C(F)(F)F)c4)c3)cc2-c2ccncc2)ccc1Cl", "values": [{"measurement": "growth at 5 µM", "setting": "[1]", "result": -10, "unit": "%"}]}
{"smiles": "COc1cc(-c2nn(-c3cccc(NC(=O)c4cccc(C(F)(F)F)c4)c3)cc2-c2ccncc2)ccc1Cl", "values": [{"measurement": "growth at 5 µM", "setting": "[1]", "result": -21, "unit": "%"}]}
{"smiles": "COc1cc(-c2nn(-c3cccc(NC(=O)c4ccc(Cl)c(C(F)(F)F)c4)c3)cc2-c2ccncc2)ccc1Cl", "values": [{"measurement": "growth at 3 µM", "setting": "RXF 393", "result": 36, "unit": "%"}, {"measurement": "growth at 0.3 µM", "setting": "CCRF-CEM", "result": 101, "unit": "%"}, {"measurement": "growth at 0.3 µM", "setting": "NCI-H522 [2]", "result": 89, "unit": "%"}, {"measurement": "growth at 3 µM", "setting": "SK-MEL-28", "result": 49, "unit": "%"}, {"measurement": "growth at 0.003 µM", "setting": "ACHN", "result": 99, "unit": "%"}, {"measurement": "growth at 30 µM", "setting": "HCT-116", "result": 18, "unit": "%"}, {"measurement": "growth at 30 µM", "setting": "SF-539 [3]", "result": -15, "unit": "%"}, {"measurement": "growth at 0.003 µM", "setting": "HOP-62", "result": 98, "unit": "%"}, {"measurement": "growth at 0.03 µM", "setting": "RPMI-8226", "result": 100, "unit": "%"}, {"measurement": "growth at 3 µM", "setting": "SK-MEL-2 [4]", "result": 36, "unit": "%"}, {"measurement": "growth at 0.003 µM", "setting": "MDA-MB-468", "result": 89, "unit": "%"}, {"measurement": "growth at 0.003 µM", "setting": "SF-539 [5]", "result": 100, "unit": "%"}, {"measurement": "growth at 3 µM", "setting": "UACC-62 [6]", "result": 40, "unit": "%"}, {"measurement": "growth at 30 µM", "setting": "UACC-62 [7]", "result": 20, "unit": "%"}, {"measurement": "growth at 0.003 µM", "setting": "UO-31", "result": 82, "unit": "%"}, {"measurement": "growth at 3 µM", "setting": "NCI-H522 [8]", "result": 12, "unit": "%"}, {"measurement": "growth at 30 µM", "setting": "MDA-MB-435", "result": -52, "unit": "%"}, {"measurement": "growth at 30 µM", "setting": "HL-60(TB)", "result": 23, "unit": "%"}, {"measurement": "growth at 3 µM", "setting": "NCI-H460 [9]", "result": 51, "unit": "%"}, {"measurement": "growth at 0.003 µM", "setting": "NCI-H226", "result": 92, "unit": "%"}, {"measurement": "growth at 0.03 µM", "setting": "TK-10", "result": 93, "unit": "%"}, {"measurement": "growth at 30 µM", "setting": "SR", "result": 4, "unit": "%"}, {"measurement": "growth at 30 µM", "setting": "OVCAR-4", "result": 32, "unit": "%"}, {"measurement": "growth at 0.003 µM", "setting": "NCI-H522 [10]", "result": 89, "unit": "%"}, {"measurement": "growth at 0.03 µM", "setting": "SK-MEL-2 [11]", "result": 100, "unit": "%"}, {"measurement": "growth at 0.3 µM", "setting": "NCI-H460 [12]", "result": 98, "unit": "%"}, {"measurement": "growth at 0.03 µM", "setting": "HCT-15", "result": 99, "unit": "%"}, {"measurement": "growth at 30 µM", "setting": "NCI-H322M", "result": 34, "unit": "%"}, {"measurement": "growth at 30 µM", "setting": "NCI-H522 [13]", "result": -7, "unit": "%"}, {"measurement": "growth at 3 µM", "setting": "SNB-75", "result": 44, "unit": "%"}, {"measurement": "growth at 3 µM", "setting": "COLO 205", "result": 74, "unit": "%"}, {"measurement": "growth at 3 µM", "setting": "MCF7", "result": 42, "unit": "%"}, {"measurement": "growth at 0.003 µM", "setting": "NCI-H460 [14]", "result": 103, "unit": "%"}, {"measurement": "growth at 0.003 µM", "setting": "IGROV-1", "result": 94, "unit": "%"}]}
